# Reference: ChEMBL document CHEMBL1127131, “Penems containing amino acid derived substituents at C-2” (1993)
# Tests used:
# [1] = tested on: Bacillus subtilis; experiment: Minimum inhibitory concentration required for antibacterial activity against Bacillus subtilis; format: functional
# [2] = tested on: Escherichia coli; experiment: Minimum inhibitory concentration required for antibacterial activity against Escherichia coli; format: functional
# [3] = tested on: Enterobacter; experiment: Minimum inhibitory concentration required for antibacterial activity against Enterobacter; format: functional
# [4] = tested on: Klebsiella; experiment: Minimum inhibitory concentration required for antibacterial activity against Klebsiella; format: functional
# [5] = tested on: Providencia; experiment: Minimum inhibitory concentration required for antibacterial activity against Providencia; format: functional
# [6] = tested on: Salmonella; experiment: Minimum inhibitory concentration required for antibacterial activity against Salmonella; format: functional
# [7] = tested on: Micrococcus luteus; experiment: Minimum inhibitory concentration required for antibacterial activity against Sarcina luteus; format: functional, sarcinea luteus
# [8] = tested on: Serratia; experiment: Minimum inhibitory concentration required for antibacterial activity against Serratia; format: functional
# [9] = tested on: Staphylococcus; experiment: Minimum inhibitory concentration required for antibacterial activity against Staphylococcus; format: functional
# [10] = tested on: Enterococcus faecalis; experiment: Minimum inhibitory required for antibacterial activity against Streptococcus faecalis; format: functional
# [11] = Gram-positive geometric mean MIC for antibacterial activity (ug/mL); format: functional
# [12] = tested on: Morganella; experiment: Minimum inhibitory concentration required for antibacterial activity against Morganella; format: functional
# [13] = Gram-negative geometric mean MIC of antibacterial activity; format: functional
# [14] = Gram-positive vitro for its antibacterial activity of Geometric Mean MIC (ug/mL); format: functional
# [15] = tested on: Serratia; experiment: Minimum inhibitory concentration for antibacterial activity against Serratia; format: functional
# [16] = Gram-positive geometric mean MIC of antibacterial activity; format: functional
Compound,MIC [1] [µg/mL],MIC [2] [µg/mL],MIC [3] [µg/mL],MIC [4] [µg/mL],MIC [5] [µg/mL],MIC [6] [µg/mL],MIC [7] [µg/mL],MIC [8] [µg/mL],MIC [9] [µg/mL],MIC [10] [µg/mL],MIC [11] [µg/mL],MIC [12] [µg/mL],MIC [13] [µg/mL],MIC [14] [µg/mL],MIC [15] [µg/mL],MIC [16] [µg/mL]
CSC[C@@H](N)C1=C(C(=O)O)N2C(=O)[C@H]([C@@H](C)O)[C@H]2S1,0.125,0.707,2,0.595,9.19,0.794,2,2.83,0.099,16,0.18,2,1.33,,,
CSC[C@H](N)C1=C(C(=O)O)N2C(=O)[C@H]([C@@H](C)O)[C@H]2S1,0.5,12.4,20.2,8.57,97,5.04,0.25,22.6,0.26,90.5,,128,16.3,0.45,,
CSCC[C@H](N)C1=C(C(=O)O)N2C(=O)[C@H]([C@@H](C)O)[C@H]2S1,4,11.7,20.2,12.1,55.7,10.1,0.031,38.1,0.214,64,0.37,64.1,17.6,,,
C[C@@H](O)[C@H]1C(=O)N2C(C(=O)O)=C(SCCOC(N)=O)S[C@H]12 [Sch-34343],0.06,0.3,1.3,0.35,0.87,0.25,,,0.11,5.7,0.15,2,0.57,,4.8,
C[C@@H](O)[C@H]1C(=O)N2C(C(=O)O)=C(CN)S[C@H]12,0.5,5.15,8,6.06,8,3.18,0.5,,0.153,32,0.28,4,6.27,,13.4,
C[C@@H](O)[C@H]1C(=O)N2C(C(=O)O)=C(COC(N)=O)S[C@H]12 [RITIPENEM],0.06,0.68,3.2,0.81,2.3,0.5,,,0.12,5.7,0.16,2,1.2,,5.7,
C[C@@H](O)[C@H]1C(=O)N2C(C(=O)O)=C([C@H](N)CCC(=O)O)S[C@H]12,0.25,3.11,6.35,3.73,16,4,2,13.4,0.735,16,1,16,5.4,,,
C[C@@H](O)[C@H]1C(=O)N2C(C(=O)O)=C(SC[C@@H](N)C(=O)O)S[C@H]12,0.5,0.25,0.76,0.17,5.66,0.16,4,1.08,1.82,45.2,,,0.49,,,3.01
CSCC[C@@H](N)C1=C(C(=O)O)N2C(=O)[C@H]([C@@H](C)O)[C@H]2S1,0.125,0.441,1,0.5,5.28,0.397,0.125,2.83,0.07,8.02,0.88,4,0.13,,,
C[C@H](N)C1=C(C(=O)O)N2C(=O)[C@H]([C@@H](C)O)[C@H]2S1,1,21.9,20.2,17.1,64,10.1,0.5,45.3,0.26,64,0.47,64,24.6,,,
C[C@@H](N)C1=C(C(=O)O)N2C(=O)[C@H]([C@@H](C)O)[C@H]2S1,,11.7,10.1,9.85,55.7,5.04,,26.9,0.229,,0.29,32,14.3,,,

# Results, then the compound that gave them:
MIC [1] [µg/mL],MIC [2] [µg/mL],MIC [3] [µg/mL],MIC [4] [µg/mL],MIC [5] [µg/mL],MIC [6] [µg/mL],MIC [7] [µg/mL],MIC [8] [µg/mL],MIC [9] [µg/mL],MIC [10] [µg/mL],MIC [11] [µg/mL],MIC [12] [µg/mL],MIC [13] [µg/mL],MIC [14] [µg/mL],MIC [15] [µg/mL],MIC [16] [µg/mL],Compound
0.5,4,10.1,4.93,13.9,3.18,0.5,,0.707,22.6,0.94,8,6.4,,19,,C[C@@H](O)[C@H]1C(=O)N2C(C(=O)O)=C(CSC[C@H](N)C(=O)O)S[C@H]12
0.25,0.284,0.63,0.308,2,0.25,0.5,,0.852,16,1.1,2,0.51,,1.68,,C[C@@H](O)[C@H]1C(=O)N2C(C(=O)O)=C(CSC[C@@H](N)C(=O)O)S[C@H]12
1.01,2.42,2.52,2.83,18.4,1,4,16,2.08,45.3,2.7,16,4,,,,C[C@@H](O)[C@H]1C(=O)N2C(C(=O)O)=C(CC[C@@H](N)C(=O)O)S[C@H]12
2.83,6.46,16,4,42.7,5.28,4,17.3,1.94,128,4,,16,,,,C[C@@H](O)[C@H]1C(=O)N2C(C(=O)O)=C(SC[C@H](N)C(=O)O)S[C@H]12
2,9.67,16,12.1,55.7,11.3,8,45.3,2.33,90.5,3.4,64,17.3,,,,C[C@@H](O)[C@H]1C(=O)N2C(C(=O)O)=C(CC[C@H](N)C(=O)O)S[C@H]12
